Results on five molecules are retold here after publication PMC3927067 (Journal of Computer-Aided Molecular Design, 2014).

The structures appear in SMILES notation. “And” between values parts separate entries of the source, which are not always exact repeats. Equal entries are not always repeated. Where two headings read alike, the source gives them in different places.

The target of one series is T1, hOX1R (Homo sapiens, UniProt O43613).
T1 sequence (O43613 1-425): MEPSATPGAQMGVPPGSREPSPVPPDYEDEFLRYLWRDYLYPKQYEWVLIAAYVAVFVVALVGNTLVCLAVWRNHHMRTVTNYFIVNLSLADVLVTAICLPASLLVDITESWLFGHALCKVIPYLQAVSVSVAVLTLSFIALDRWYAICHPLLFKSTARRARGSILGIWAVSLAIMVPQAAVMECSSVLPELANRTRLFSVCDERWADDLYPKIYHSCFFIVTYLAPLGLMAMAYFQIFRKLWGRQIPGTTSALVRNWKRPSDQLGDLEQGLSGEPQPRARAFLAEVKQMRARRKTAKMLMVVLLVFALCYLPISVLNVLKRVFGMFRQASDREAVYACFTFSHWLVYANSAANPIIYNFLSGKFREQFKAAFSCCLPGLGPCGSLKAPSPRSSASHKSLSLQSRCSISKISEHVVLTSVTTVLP
The series is described as follows: Orexin 1 receptor binding assay.

In a further series the target is T2, hOX2R (Homo sapiens, UniProt O43614).
T2 sequence (O43614 1-444): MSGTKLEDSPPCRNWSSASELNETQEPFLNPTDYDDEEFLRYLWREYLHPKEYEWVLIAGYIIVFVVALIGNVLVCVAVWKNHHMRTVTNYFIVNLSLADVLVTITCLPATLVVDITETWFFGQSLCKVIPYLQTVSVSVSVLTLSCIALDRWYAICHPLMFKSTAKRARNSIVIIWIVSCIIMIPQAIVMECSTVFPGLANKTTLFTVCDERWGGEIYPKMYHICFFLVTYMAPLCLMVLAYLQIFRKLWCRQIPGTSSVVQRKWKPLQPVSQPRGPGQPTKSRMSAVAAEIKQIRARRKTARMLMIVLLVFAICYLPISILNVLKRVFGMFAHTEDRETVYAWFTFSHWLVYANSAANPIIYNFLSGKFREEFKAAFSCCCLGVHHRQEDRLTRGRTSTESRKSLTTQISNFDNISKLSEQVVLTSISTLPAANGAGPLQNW
The series is described as follows: Orexin 2 receptor binding assay.

Series [1] in a line: NMR solution conformation (NOE). It counts as physicochemical. The conditions noted are these: CD3OD at −40 °C. From the text: Although the molecular and quantum mechanical methods were in agreement with one another, we sought additional experimental methods to either support or refute our initial computational findings. We first determined the unbound, small-molecule crystal structure. The RMSD between the computationally derived conformation depicted in Fig. 1 and the X-ray structure was 0.75 Å (non-hydrogen atoms). Additionally, no differences between the geometries of the nitrogen atoms of the seven-membered ring nor the amide bond were observed between the theoretically and experimentally derived conformations. Even though there was no computed difference between the conformations (Table 1) when implicit solvent was invoked, we sought to experimentally confirm that the solution state conformation was consistent with the aforementioned theoretical and crystal structure experiments. There was again excellent agreement from NMR spectroscopy applied to compound 1, with NOE evidence for the F2F interaction in the major rotamer. In fact, two F2F rotamers in the ensemble accounted for 82 % of the total solution conformation (CD3OD at −40 °C), each with a motif similar to that found by computational analysis and X-ray structure.

Details of series [2]: method as in PMID 20565075. The conditions noted are these: cited from earlier work.
For series [3] the following is noted: cited from earlier work.
In the next series the test system is preclinical species. As to the kind of experiment: In vivo sleep promotion.
A short description of series [4]: Brain/plasma ratio, iv infusion study. The conditions noted are these: rat.
Where [5] appears, read: mean of replicates, read-out: OX1R Ki.
The mark [6] stands for this setting: supplement, individual replicates, Ki and nM taken from Table 3, read-out: OX1R individual replicate.
[7] abbreviates: supplement, unlabelled mean below the replicates, Ki and nM taken from b8/Table 3, read-out: OX1R mean of replicates.
The mark [8] stands for this setting: mean of replicates, read-out: OX2R Ki.
Setting [9] is: supplement, individual replicates, Ki and nM taken from Table 3, read-out: OX2R individual replicate.
[10] abbreviates: supplement, unlabelled mean below the replicates, Ki and nM taken from b8/Table 3, read-out: OX2R mean of replicates.

On to `Cc1ccc(-n2nccn2)c(C(=O)N2CCCN(c3ncc4ccccc4n3)CC2)c1` [Compound 1], for which the Ki at hOX1R (setting [5]) is 1.2 nM; on hOX1R (setting [6]), 2.2 nM and 0.71 nM and 0.58 nM and 1.3 nM and 0.94 nM and 0.62 nM and 0.54 nM and 2.4 nM and 1.4 nM; on hOX1R (setting [7]), 1.2 nM; at hOX2R (setting [8]) it was 0.8 nM; at hOX2R (setting [9]), 0.773 nM and 0.86 nM and 1.01 nM and 0.775 nM and 0.811 nM and 0.65 nM and 0.64 nM and 0.61 nM and 0.57 nM and 0.606 nM and 0.41 nM and 0.72 nM and 0.754 nM and 0.866 nM and 0.905 nM and 0.731 nM and 1.31 nM and 0.954 nM and 0.71 nM. Moreover, in series [1], the “share of two F2F rotamers in total solution conformation” value stood at 82%.

As to `O=C(c1cc(Cl)ccc1-n1nccn1)N1CC2CC(C1)N(c1ncc3cc(F)ccc3n1)C2` (stereo not drawn) [Compound 4], the Ki at hOX1R (setting [5]) was 0.4 nM; on hOX1R (setting [6]), 0.43 nM and 0.42 nM; at hOX1R (setting [7]), 0.425 nM; on hOX2R (setting [8]) it was 0.6 nM; on hOX2R (setting [9]), 0.66 nM and 0.57 nM; on hOX2R (setting [10]), 0.615 nM.

Take `Cc1ccc(-n2nccn2)c(C(=O)N2CC3CC2CCN3c2ncc3cc(F)ccc3n2)c1` (stereo not drawn) [Compound 5]: on hOX1R (binding, relative to compound 4, receptor not specified), the “times less active than compound 4” value is reported as > 1,000 times. The Ki is over 1700 nM at hOX1R (setting [5]); 2740 nM at hOX2R (setting [8]); 2800 nM and 2280 nM and 3150 nM on hOX2R (setting [9]); 2740 nM on hOX2R (setting [10]).

For `C[C@@H]1CCN(c2ncc3cc(F)ccc3n2)CCN1C(=O)c1cc(Cl)ccc1-n1nccn1` [Compound 6], the Ki on hOX1R (setting [5]) is 0.6 nM; on hOX1R (setting [6]) it was 0.9 nM and 0.31 nM; on hOX1R (setting [7]) it was 0.605 nM; on hOX2R (setting [8]), 0.2 nM; on hOX2R (setting [9]) it was 0.19 nM and 0.11 nM; at hOX2R (setting [10]), 0.15 nM. Besides, the in vivo activity entry in series [2] is given as “excellent in vivo activity”. For the same molecule, the metabolic liability entry in series [3] is on record as “metabolic liability”.

For `Cc1ccc(-n2nccn2)c(C(=O)N2CCN(c3nc4cc(Cl)ccc4o3)CC[C@H]2C)c1` [Compound 7, Suvorexant], the “sleep promotion in vivo” value with preclinical species is “promote sleep in preclinical species in a dose dependent fashion”. Further, the metabolic issues entry in series [3] (benzoxazole replacing quinazoline ring) is listed as “devoid of the metabolic issues”. For the same molecule, the toxicology profile result in the series “Toxicology profile” is on record as “favorable toxicology profile”. Further, the concentration ratio (Kp) in series [4] (brain and plasma, iv) lay in the range of 0.6 to 1.2. In series [4] (iv infusion study), the CNS penetration result is “CNS penetrant”.

By Kp is commonly meant the ratio of the level in a tissue or fluid to that in plasma or blood.
